In patent US20250368648A1, “MULTI-CYCLIC IRAK AND FLT3 INHIBITING COMPOUNDS AND USES THEREOF” (CHILDREN'S HOSPITAL MEDICAL CENTER, priority 2022, published 2025):
Entries after “also recorded” stand apart in the source; their conditions may differ.

How the values were obtained:
[1] = test system: MOLM14-FLT3-ITD(D835Y) acute myeloid leukemia cells; assay: AML efficacy study in mice engrafted with MOLM14-FLT3-ITD(D835Y); assay type: in vivo
Procedure: Female, NSG-SGM3 (NOD.Cg-Prkdc^scid Il2^tm1Wjl Tg(CMV-IL3, CSF2, KITLG)1Eav/MloySzJ) mice were intravascularly engrafted with MOLM14-FLT3-ITD(D835Y) acute myeloid leukemia cells. Injection of leukemia cells was performed on 3/21/2022. Mice were randomized and dosing began three weeks following engraftment. […] Mice experiencing clinical signs prior to scheduled end-date, including weight loss, lethargy, hunched posture, ruffled coat, or hind limb paralysis were humanely euthanized.
Bone marrow aspirates were performed when the initial vehicle control mice became clinical, 9 days following initiation of treatment. Aspirates were centrifuged, treated with RBC lysis buffer, resuspended in 250 μL PBS, and two cytospin chamber slides were loaded with 125 μL. Cytospins were used to create two cytology slides per mouse: one for Wright-Giemsa staining and the other for huCD45 immunocytochemistry, if needed. Cytology slides were graded according to the number of leukemic cells identified per 400× field as follows: 0, none; 1, 1-5 CD45+ cells; 2, 6-10 CD45+ cells; 3, 11-15 CD45+ cells; 4, 16-30 CD45+ cells; 5, >30 CD45+ cells.
At necropsy, sections of femur, tibia, vertebra, and sternum were evaluated for the presence of leukemic cells using H&E and CD45 immunohistochemistry, if needed. Grades for long bones, vertebrae, and sternum were recorded as follows: 0, no leukemic cells; 1, <1% of cells; 2, 1-10% of cells; 3, 10-50% of bone marrow; 4, >50% of bone marrow. Sums of the individual grades were taken for each mouse (range 0 to 12).
Leukemic burden was measured in NSGS mice xenografted with MOLM14 FLT3-ITD(D835Y) and quantified using bone marrow (BM) aspirates. An initial BM aspirate, accompanied by peripheral CBC evaluation (submandibular samples), was collected at the time that clinical signs first appeared in control mice to verify AML engraftment prior to the start of drug dosing. Cytospin chambers were used to create two cytology slides per bone marrow sample. Aspirate samples were of high quality for 85% of samples. A semi-quantitative grading system was applied to each bone marrow aspirate according to the number of leukemic cells identified per 400× field as follows:
• 1: 1-5 leukemic cells (per HPF) • 2: 6-10 leukemic cells • 3: 11-15 leukemic cells • 4: 16-30 leukemic cells • 5: >30 leukemic cells
All mice had evidence of leukemia within the bone marrow aspirate. Histopathology scores we re-taken for long bones (femur and tibia), vertebrae, and sternum as follows: 0, no leukemic cells; 1, <1% of cells; 2, 1-10% of cells; 3, 10-50% of bone marrow; 4, >50% of bone marrow. Scores were totaled (range: 0 to 12) and plotted by group at necropsy. […] To incorporate survival, the bone marrow grade was divided by the time on test (FIG. 10).

[2] = test system: THP1 cells; assay: Combination drug screening, Cell Titer Glo, THP1 cells; settings: FLT3 WT setting (THP1 cells), Cell Titer Glo, 48 hours;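 also: luminescence read out in 1536-well plates seeded with 500 THP1 cells per well, each drug spanning a 10-point concentration range in the combination matrix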
Description: A smaller concentration indicates higher potency to synergize with Venetoclax. […] The numbers in each cell represent the % response (left) or the Delta Bliss score (right) at each given concentration combination.
A smaller concentration indicates higher potency to synergize with azacitidine. […] The numbers in each cell represent the % response (left) or the Delta Bliss score (right) at each given concentration combination.
(§1) This is a cell line that has the FLT3 ITD mutation but also the FLT3 D835Y kinase domain mutation. […] Excess HSA is a measure of synergy vs. additivity or antagonism, wherein a negative Excess HSA value is indicative of synergy.
Briefly, 10 nL of compounds were acoustically dispensed into 1536-well white polystyrene tissue culture-treated plates with an Echo 550 acoustic liquid handler (Labcyte). MOLM14 (D835Y) or THP1 cells were then added to compound-containing plates at a density of 500-cells/well in 5 μL of medium. A 10-point custom concentration range was used for all listed drugs. […] 48h post compound addition, 3 μL of Cell Titer Glo (Promega) were added to each well and plates were incubated at room temperature for 15 minutes with the stainless-steel lid in place. Luminescence readings were taken using a Viewlux imager (PerkinElmer) with a 2 second exposure time per plate.

[3] = test system: MOLM14 (D835Y) cells; assay: Combination drug screening, Cell Titer Glo, MOLM14 (D835Y) cells; settings: FLT3 mutant setting (ITD-D835Y cells), Cell Titer Glo, 48 hours;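 also: MOLM14 cells with FLT3 ITD plus D835Y, 500 per well in 1536-well plates, 10-point dose ranges, luminescent viability after 48 h, negative Excess HSA indicates synergy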
Procedure: Briefly, 10 nL of the compound shown below was acoustically dispensed into 1536-well white polystyrene tissue culture-treated plates with an Echo 550 acoustic liquid handler (Labcyte). Cells were then added to compound-containing plate at a density of 500-cells/well in 5 μL of medium. A 6-point or 10-point custom concentration range was used for all listed drugs. Plates were incubated for 48 hours at standard incubator conditions covered by a stainless steel gasketed lid to prevent evaporation. 48h post compound addition, 3 μL of Cell Titer Glo (Promega) were added to each well and plates were incubated at room temperature for 15 minutes with the stainless-steel lid in place. Luminescence readings were taken using a Viewlux imager (PerkinElmer) with a 2 second exposure time per plate.
A smaller concentration indicates higher potency to synergize with Venetoclax.
A smaller concentration indicates higher potency to synergize with azacitidine.
as §1

[4] = target: hERG (Homo sapiens, UniProt Q12809); assay: Window to the hERG IC50 at the dose studied (FIG. 9B); settings: at the dose studied (30 mg/kg, mice)
hERG, sequence (Q12809 whole entry): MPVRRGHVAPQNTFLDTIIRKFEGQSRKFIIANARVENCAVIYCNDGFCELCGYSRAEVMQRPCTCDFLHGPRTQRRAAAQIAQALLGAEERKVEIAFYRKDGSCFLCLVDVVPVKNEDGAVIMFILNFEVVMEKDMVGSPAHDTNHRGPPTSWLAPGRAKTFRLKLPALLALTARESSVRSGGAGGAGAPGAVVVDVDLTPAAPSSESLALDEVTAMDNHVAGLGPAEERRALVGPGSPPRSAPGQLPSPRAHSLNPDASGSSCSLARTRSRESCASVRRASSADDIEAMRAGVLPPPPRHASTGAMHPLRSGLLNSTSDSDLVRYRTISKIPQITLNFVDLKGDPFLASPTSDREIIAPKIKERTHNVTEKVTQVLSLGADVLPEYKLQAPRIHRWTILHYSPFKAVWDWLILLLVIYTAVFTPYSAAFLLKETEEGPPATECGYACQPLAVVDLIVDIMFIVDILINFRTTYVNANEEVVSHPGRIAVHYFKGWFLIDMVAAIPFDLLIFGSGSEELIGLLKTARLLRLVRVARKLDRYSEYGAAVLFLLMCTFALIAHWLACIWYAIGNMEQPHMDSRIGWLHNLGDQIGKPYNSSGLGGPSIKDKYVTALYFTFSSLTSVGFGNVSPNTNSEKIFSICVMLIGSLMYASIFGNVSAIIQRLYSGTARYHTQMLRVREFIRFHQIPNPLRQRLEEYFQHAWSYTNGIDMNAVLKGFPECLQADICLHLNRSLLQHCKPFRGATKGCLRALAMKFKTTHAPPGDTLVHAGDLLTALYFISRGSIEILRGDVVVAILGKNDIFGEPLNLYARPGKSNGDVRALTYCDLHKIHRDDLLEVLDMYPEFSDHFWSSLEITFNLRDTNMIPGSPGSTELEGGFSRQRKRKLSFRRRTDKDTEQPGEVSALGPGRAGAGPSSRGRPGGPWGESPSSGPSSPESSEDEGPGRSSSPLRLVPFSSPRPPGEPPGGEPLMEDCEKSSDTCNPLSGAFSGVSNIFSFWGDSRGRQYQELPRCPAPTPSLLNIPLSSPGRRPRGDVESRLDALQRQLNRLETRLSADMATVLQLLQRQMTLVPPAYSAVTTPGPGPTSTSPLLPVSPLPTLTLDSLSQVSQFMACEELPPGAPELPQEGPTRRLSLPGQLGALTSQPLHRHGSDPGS

[5] = test system: MOLM14-FLT3-ITD (D835Y) AML cells; assay: Caspase-Glo 3/7 apoptosis assay, time course; assay type: cell-based

## COc1cc2ncc(-c3nc(N[C@@H]4CCCNC4)c(F)cc3F)n2nc1C1CC1 [Compound 106, (R)-6-(6-cyclopropyl-7-methoxyimidazo[1,2-b]pyridazin-3-yl)-3,5-difluoro-N-(piperidin-3-yl)pyridin-2-amine]
[1]; 30 mg/kg orally once/day M-F, 90 days, NSG-SGM3 mice
  survival: Significant survival differences; also recorded: enhanced survival in mice compared to gilteritinib and CA-4948 (emavusertib); also recorded: improved survival compared to those treated with gilteritinib or emavusertib (CA-4948)
[1]; 30 mg/kg, mice, FIG. 9B
  plasma levels (Cmax and AUC) against comparators: not due to higher plasma levels vs. gilteritinib or emavusertib
[1]; 90 day study, 30 mg/kg
  survival-adjusted leukemic burden (bone marrow grade divided by time on test): decreased scores compared to standard of care F02 (Gilteritinib); also recorded: superior in reducing survival-adjusted leukemic burden
[1]; after 90 days of treatment at 30 mg/kg, study then ended
  survival persisting after withdrawal of the compound: 7 days
[1]; sum of histopathology scores of long bones, vertebrae, sternum (range 0 to 12)
  bone marrow grades (leukemic burden) at necropsy: Decreased bone marrow grades
[2]
  synergy with venetoclax or azacitidine: considerably more potent as a synergistic agent than either Gilteritinib or emavusertib (CA-4948)
[3]
  synergy with venetoclax or azacitidine: considerably more potent as a synergistic agent than either Gilteritinib or emavusertib (CA-4948)
[4]
  window to the hERG IC50: larger window to the hERG IC50 than does emavusertib (CA-4948)
[5]; dose level 6: gilteritinib 25 nM or Compound 106 12 nM with venetoclax 25 nM
  combination activity with venetoclax (apoptosis induction): much stronger than any of the other drug combinations
[5]; dose level 7: 4 nM of Compound 106 and 8 nM of venetoclax
  combination activity with venetoclax (apoptosis induction over 24 hours): high activity
[5]; dose level 7: 4 nM of Compound 106 and 8 nM of venetoclax, four hours
  cells entering apoptosis, combination with venetoclax: about half of the cells enter into apoptosis in four hours
[5]; dose level 8: 1.37 nM of Compound 106 and 2.7 nM of venetoclax
  combination activity with venetoclax (apoptosis induction over 24 hours): high activity
[5]; single agent, 1.37 nM, 12 hours of coverage
  cells stimulated to apoptosis: about 30%
[5]; single agent, even at the lowest dose of 1.37 nM, Caspase-Glo 3/7
  time at which apoptosis starts, single agent: ≤ 12 h
